Measurements: patent US8183238B2, “Bicyclic and tricyclic compounds as KAT II inhibitors” (priority 2009, dated 2012)
Like-named read-outs stand apart in the source and are kept apart here.

Experiments:
[1] = target: human KAT II (hKAT II) enzyme (Homo sapiens, UniProt Q8N5Z0); assay: KAT II Inhibition Spectra Assay; format: biochemical; conditions: Table 5; hKAT II, decrease in OD370, 37° C., 15-20 h; read-out: KATII IC50
Outline: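 hKAT II (15 nM, 3× stock) converts L-kynurenine (3 mM, 3× stock) with α-ketoglutarate and PLP in Tris acetate; 15–20 h at 37 °C. Inhibition of the OD370 decrease read versus DMSO wells across a concentration range gives IC50.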

[2] = Prodrug in vivo pharmacokinetics in dogs (plasma, LC-MS-MS); set-up: species or system Dog (Beagle); conditions: Beagle, dog, in vivo, po, 1 mg/kg
Experimental: Test substances (Examples 4 and 71-73) were administered by oral gavage to groups of two dogs. Example 71 was also administered intravenously.
Blood samples were taken at various times after administration and submitted to analysis for the parent drug (Example 71) and pro-drug (Examples 72 and 73) using an LC-MS-MS assay. Pharmacokinetic parameters derived from the plasma analytical data were determined using Watson LIMS 7.2.003 (Thermo Fisher Scientific, Waltham, Mass.). The results are given in FIG. 1 and Tables 8, 9, 10, and 11.

[3] = Prodrug in vivo pharmacokinetics in monkeys (plasma, LC-MS-MS); set-up: species or system Monkey (Cynomolgus); conditions: Example 4 in monkey plasma after oral Example 4 (10 mg/kg active); for Cmax / Tmax / half-life / AUC: Cynomolgus, cynomolgus monkey, plasma, po, 10 mg/kg; for F: calculated using IV AUC of 265 ng · h/mL
Experimental: Test substances (Examples 4 and 71-73) were administered by oral gavage to groups of two monkeys.
Blood samples were taken at various times after administration and submitted to analysis for the parent drug (Example 4 and Example 71) and pro-drug (Examples 72 and 73) using an LC-MS-MS assay. […] Pharmacokinetic parameters derived from the plasma analytical data were determined using Watson LIMS 7.2.003 (Thermo Fisher Scientific, Waltham, Mass.). The results are given in FIG. 2 and Tables 13, 14, and 15.

[4] = Prodrug in vivo pharmacokinetics in rats (plasma, LC-MS-MS); conditions: Wistar-Han, rat
Experimental: Test substances (Examples 4, 73, and 366-369) were administered by oral gavage to groups of three rats.
Blood samples were taken at various times after administration and analyzed for the parent drug (Example 4) and prodrugs (Examples 73 and 366-369) using an LC-MS-MS assay. Pharmacokinetic parameters derived from the plasma analytical data were determined using Watson LIMS version 7.2.003 (Thermo Fisher Scientific, Waltham, Mass.).

[5] = Prodrug in vivo pharmacokinetics in monkeys (plasma, LC-MS-MS); conditions: Cynomolgus, cynomolgus monkey, iv, 0.3 mg/kg, plasma exposure of Example 4 in monkeys following intravenous administration of Example 4 at 0.3 mg/kg

Sequence of human KAT II (hKAT II) enzyme (Q8N5Z0 30-425): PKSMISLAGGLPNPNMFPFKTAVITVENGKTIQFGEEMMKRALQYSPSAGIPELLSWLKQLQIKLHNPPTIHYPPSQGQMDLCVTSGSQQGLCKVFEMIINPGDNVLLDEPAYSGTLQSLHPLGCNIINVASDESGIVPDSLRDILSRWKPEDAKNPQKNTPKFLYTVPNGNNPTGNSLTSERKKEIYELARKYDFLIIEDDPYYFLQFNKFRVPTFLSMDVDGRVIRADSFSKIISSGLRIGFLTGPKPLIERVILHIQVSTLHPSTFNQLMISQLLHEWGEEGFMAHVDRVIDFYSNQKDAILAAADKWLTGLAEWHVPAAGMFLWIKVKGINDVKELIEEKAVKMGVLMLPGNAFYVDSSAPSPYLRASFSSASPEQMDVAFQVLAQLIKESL

N[C@H]1Cc2ccccc2N(O)C1=O [Example 4, (3S)-3-amino-1-hydroxy-3,4-dihydroquinolin-2(1H)-one]
IC50 [1]: 37.5 nM | AUC increase vs. oral administration of Ex. 4 [2]: 1.0 | Cmax ([3]; Mean): 220 ng/mL | Tmax ([3]; Mean): 41.4 min | half-life ([3]; Mean): 43.8 min | AUC ([3]; Mean, read-out: AUC): 181 ng·h/mL | AUC ([3]; Mean, read-out: AUC Extrap): 186 ng·h/mL | Cmax ([3]; Monkey 1): 200 ng/mL | Tmax ([3]; Monkey 1): 60 min | half-life ([3]; Monkey 1): 46.8 min | AUC ([3]; Monkey 1, read-out: AUC): 184 ng·h/mL | AUC ([3]; Monkey 1, read-out: AUC Extrap): 188 ng·h/mL | Cmax ([3]; Monkey 2): 340 ng/mL | Tmax ([3]; Monkey 2): 15 min | half-life ([3]; Monkey 2): 49.2 min | AUC ([3]; Monkey 2, read-out: AUC): 239 ng·h/mL | AUC ([3]; Monkey 2, read-out: AUC Extrap): 247 ng·h/mL | Cmax ([3]; Monkey 3): 206 ng/mL | Tmax ([3]; Monkey 3): 30 min | half-life ([3]; Monkey 3): 40.8 min | AUC ([3]; Monkey 3, read-out: AUC): 141 ng·h/mL | AUC ([3]; Monkey 3, read-out: AUC Extrap): 144 ng·h/mL | Cmax ([3]; Monkey 4): 133 ng/mL | Tmax ([3]; Monkey 4): 60 min | half-life ([3]; Monkey 4): 37.8 min | AUC ([3]; Monkey 4, read-out: AUC): 159 ng·h/mL | AUC ([3]; Monkey 4, read-out: AUC Extrap): 163 ng·h/mL | % AUC Extrap ([3]; Mean): 2.46% | % AUC Extrap ([3]; Monkey 1): 2.28% | % AUC Extrap ([3]; Monkey 2): 3.05% | % AUC Extrap ([3]; Monkey 3): 1.96% | % AUC Extrap ([3]; Monkey 4): 2.56% | F ([3]; Mean): 2.1% | F ([3]; Monkey 1): 2.1% | F ([3]; Monkey 2): 2.8% | F ([3]; Monkey 3): 1.6% | F ([3]; Monkey 4): 1.8% | AUC increase vs. oral administration of Ex. 4 [4]: 1.0 | AUC [5]: 265 ng·h/mL
